Results published in patent US4124723A, “Method for suppressing histamine release” (Carter-Wallace, Inc., priority 1977, dated 1978).

What was measured:
[1] = test system: sensitized rabbit leukocytes; assay: Inhibition of histamine release from sensitized rabbit leukocytes (in vitro); format: cell-based; settings: for IC50: Oryctolagus cuniculus, Leukocyte, ragweed-sensitized rabbit leukocytes, ragweed antigen, with S.E.M., read-out: ED50 + S.E.M. (molar concentration required to give 50% inhibition of histamine release); for Relative in vitro Inhibition of Histamine Release: relative to chlorphenesin = 1
Protocol: The procedure published by L. M. Lichtenstein and A. G. Osler, J. EXPTL. MEDICINE, 120:507-530, 1964, for the determination of histamine from human leukocytes, was used to measure histamine release from sensitized rabbit leukocytes. Forty-five ml of blood, drawn by cardiac puncture from ragweed-sensitized rabbits with a plastic syringe containing 250 units of heparin in 5 ml of physiological saline solution, was used. Measurements were made of the total amount of histamine in the leukocytes, the amount of histamine released with the specific antigen (ragweed), the amount of histamine released spontaneously (cell blanks), and the amount of histamine released in the presence of various concratrations of drugs under test.
Appropriate controls for buffer antigen and drugs were included and an internal histamine standard curve was established with each experiment. Inhibition of histamine release was computed from the amount of histamine released by the ragweed antigen in the presence and absence of the drug, i.e., the difference between the quantity of histamine released spontaneously and the amount released by antigen.

[2] = test system: ragweed-sensitized rabbits; assay: Inhibition of histamine release after oral administration to ragweed-sensitized rabbits (in vivo); settings: 100 mg/kg oral, rabbit, 50 μg antigen N per ml
Protocol: Five ml of blood was drawn by cardiac puncture from a ragweed-sensitized rabbit to ascertain the basic histamine content of the blood. The amount of histamine released by the addition of 50 μg of antigen N per ml of the assay system was determined. The rabbit was then treated orally with 100 mg/kg of drug using a catheter. One and 5 hr following administration of drug, 5 ml of blood was withdrawn and assayed for histamine by the spectrofluorometric method described by P. A. Shore, A. Burkhalter and V. H. Cohn, Jr., J. PHARMACOL. and EXPTL. THERAP., 127:182, 1959. The percentage inhibition of histamine release was computed from the amount of histamine released before and at 1 and 5 hr following administration of drug.

human leukocytes = settings: reported by Lichtenstein and Adkinson, J. Immunology 103:866, 1969; cited from earlier work

With `O=C(O)CCCSc1ccc(Cl)cc1` [Compound 1, Sodium 4-(p-Chlorophenylthio)butyrate] the IC50 [1] was 6 µM, the “Relative in vitro Inhibition of Histamine Release” value (shortened to “Relative in vitro Inhibition”) [1] was 55 and the “percentage inhibition of histamine release” value ([2]; 5 hrs after drug) was 10-15%. The “percentage inhibition of histamine release” value ([2]; one hour after drug) was 30-40%.

In the case of `COCCCCSc1ccc(Cl)cc1` [Compound 4, 4-(p-Chlorophenylthio)butyl methyl ether], the IC50 [1] is reported as 28 µM and the “Relative in vitro Inhibition” value [1] is reported as 12.

For `OCC(O)COc1ccc(Cl)cc1` (stereo not shown) [chlorphenesin, 3-p-chlorophenoxy-1,2-propanediol, reference compound], the IC50 [1] is listed as 330 µM, the “Relative in vitro Inhibition” value [1] is listed as 1 and the “inhibition of histamine release from human leukocytes” value (human leukocytes) is listed as “inhibit histamine release from human leukocytes”.

For `CC(=O)OCCCCSc1ccc(Cl)cc1` [Compound 3, 4-(p-Chlorophenylthio)butyl acetate], the IC50 [1] was 6.3 µM and the “Relative in vitro Inhibition” value [1] was 52.

With `O=C(O)CSc1ccc(Cl)cc1` [Compound 2, 2-(p-Chlorophenylthio)acetic acid] the IC50 [1] was 44 µM and the “Relative in vitro Inhibition” value [1] was 8.
